US12503432B2, “Ionizable lipids for nucleic acid delivery” (Global Life Sciences Solutions Canada ULC, priority 2019, dated 2025)

Legend:
[1] = TNS fluorescence assay: experimental pKa of formulated lipid nanoparticles; assay type: physicochemical; conditions: experimental surface pKa of empty LNP, cationic lipid/DSPC/cholesterol/PEG-lipid (50/10/38.5/1.5)
Method: The pKa of each cationic lipid was determined in lipid nanoparticles using an assay based on fluorescence of 6-(p-Toluidino)-2-naphthalenesulfonic acid sodium salt (TNS, Sigma Aldrich), which is a fluorescent probe for the conformational state of proteins^5. Empty lipid nanoparticles comprising of cationic lipid/DSPC/cholesterol/PEG-lipid (50/10/38.5/1.5) in distilled water at a concentration of 3.125 mM total lipid are formulated using NanoAssemblr® Spark™, and were then was characterized for LNP quality on the Zetasizer™ using a 30× dilution with 1×PBS in the low volume cuvette. Lipid nanoparticles were further diluted 4× using distilled water to 0.781 mM total lipid. TNS was prepared as a 25 μM stock solution in distilled water. Then 6.4 μL of diluted LNP samples of 0.781 mM total lipid were mixed with 10 μL of diluted TNS to a final volume of 250 μL with buffer containing 10 mM HEPES, 10 mM MES, 10 mM NH4OAc and 130 mM NaCl where the pH ranged from 3 to 9 in 0.5 pH increments.
Samples were mixed thoroughly, and the fluorescence intensity was measured at room temperature in a BioTek™ Synergy™ H1 Hybrid Multi-Mode Monochromator™ Fluorescence Microplate Reader using excitation and emission wavelengths of 321 nm and 445 nm respectively. A sigmoidal best fit analysis was applied to the fluorescence data using GraphPad Prism™ software, and the pKa was measured as the pH at half-maximal fluorescence intensity.

[2] = system: primary human T cells; assay: EPO mRNA LNP delivery to primary human T cells, Quantikine IVD Human Epo ELISA; assay type: cell-based
Method: Reagents were acquired from Quantikine, Minneapolis, MN. The assay was performed as directed on the Quantikine® IVD® ELISA Human Erythropoietin Immunoassay protocol in the package insert. Briefly; primary human T cells were isolated from fresh whole blood using a negative selection protocol and activated using a triple activator. Seven days post-activation, T cells were dosed with mRNA LNPs encoding EPO at […] mRNA per 500,000 cells and N/P 10. After 48 h of exposure, the T cells were harvested and lysed for cytosolic EPO and media supernatant was sampled for secreted EPO. Quantikine® Human Serum Controls were used.

[3] = system: C57BL/6 mice; assay: In vivo delivery of OVA-encoded mRNA LNP via intramuscular administration, anti-OVA-IgG ELISA of serum; conditions: 5 μg OVA mRNA i.m. on Day 1 and 10, serum 2 weeks post second immunization, versus 50 ug OVA protein, FIG. 10
Method: A lipid mixture of LM02b composition in ethanol was mixed with a low pH buffered solution of Ova mRNA at an N/P ratio of 8 using a NanoAssemblr® Ignite™ microfluidic mixer. The LNP were downstream processed using the Amicon™ ultra filtration technique and characterized for size, PDI and encapsulation efficiency. Size and PDI were measured using dynamic light scattering techniques, and nucleic acid encapsulation efficiency was calculated from a modified Quant-iT RiboGreen™ RNA assay. The hydrodynamic diameter of these mRNA-LNPs was ˜76 nm with a polydispersity index of 0.01 to 0.12 and an encapsulation efficiency of ˜95%
All animals were handled according to the Institutional Animal Care and Use Committee ethics protocols. For experiments, 6-8 week old C57BL/6 mice (n=4) were purchased from Envigo. […] Aliquots of serum samples were thawed and analyzed at appropriate dilutions for Ova expression and for IgG measurements using standard ELISA techniques.
Anti-OVA-IgG ELISA of serum samples: Sera from the immunized mice were collected at 2 weeks post second immunization. OVA—specific production of IgG in response to OVA-encoded mRNA in various LNPs were measured by ELISA as described supra. […] After 30 minutes of incubation, a stop solution of 2 N sulphuric acid was added and a plate reader was used to determine absorbance at 450 nm. […]

[4] = system: primary human T cells; assay: CD19 CAR mRNA LNP expression in isolated primary human T cells; assay type: cell-based; conditions: CT10, N/P 8, transfected T cells in vitro, FIG. 9
Method: FIG. 9 are two illustrations of CD19 CAR expression levels in isolated primary human T cells mediated by mRNA CT10 N/P 8 LNPs containing PNI 545, PNI 516, PNI132, PNI 542, PNI 565 incorporating CD19 CAR (chimeric antigen receptor) mRNA. Geometric mean fluorescence intensity of anti-CD19-PE fluorophore (top bar graph) and CD19 CAR positive T cell population (bottom histogram) were measured by flow cytometry 24 hours following LNP addition with 500 ng of encapsulated mRNA per 125,000 T cells 3 days after triple activation;
CD19 CAR expression in isolated primary human T cells mediated by mRNA-LNPs containing IL with CT10 composition at N/P 8 was assayed after in vitro exposure. The CAR vector pcDNA3.1 anti-CD19-h(BB Lambda)-EGFP-2nd-CAR (T7 Mut) 7661 bp was purchased from Creative BioLabs, NY, USA.
T cells were isolated from whole blood using a negative isolation procedure and T cell activation, and expansion was carried out by triple activation in ImmunoCult™ Human T Cell Expansion Media as described supra.

[5] = primary human T cells, 48 hours

Compound	pKa [1]	other results
CC/C=C\CC1C(CC(=O)OCC(COCCCCCCCC/C=C\C/C=C\CCCCC)OCCCCCCCC/C=C\C/C=C\CCCCC)CCC1OC(=O)CCCN(C)C (centres unmarked) [PNI 101]	6.37	cytosolic EPO ([2]; T cell lysate, 48 h exposure, N/P 10, FIG. 5): no cytosolic EPO; secreted EPO ([2]; media supernatant, 48 h exposure, N/P 10, FIG. 5): about 1016 mlU/mL; EPO expression mediated by LNPs versus MC3 [2, 5]: higher than those containing MC3; Fold increase in EPO concentration relative to MC3 [2, 5]: 1.87; EPO concentration (mIU/mL), 48 hours ([2]; primary human T cells, 48 hours, EPO mRNA LNP, N/P 10): 1016.0 mIU/mL
CC/C=C\CC1C(CC(=O)OCC(COCCCCCCCC/C=C\C/C=C\CCCCC)OCCCCCCCC/C=C\C/C=C\CCCCC)CCC1OC(=O)C1(C)CCN(C)CC1 (centres unmarked) [PNI 123]	6.01	OVA-specific IgG response [3]: the same or higher IgG response as that of a 10 fold higher dose of OVA protein
CC/C=C\CC1C(CC(=O)OCC(COCCCCCCCC/C=C\C/C=C\CCCCC)OCCCCCCCC/C=C\C/C=C\CCCCC)CCC1OC(=O)C1CCN(C)CC1 (centres unmarked) [PNI 132]	6.1	OVA-specific IgG response [3]: the same or higher IgG response as that of a 10 fold higher dose of OVA protein
CC/C=C\CC1C(CC(=O)OC(CCCCCCCCC2CC2CCCCCCCC)CCCCCCCCC2CC2CCCCCCCC)CCC1OC(=O)CCCN(C)C (centres unmarked) [PNI 516]	6.18	–
CC/C=C\CC1C(CC(=O)OCC(COCCCCCCCC/C=C\C/C=C\CCCCC)OCCCCCCCC/C=C\C/C=C\CCCCC)CCC1OC(=O)CCCN(CC)CC (centres unmarked) [PNI 542]	6.11	–
CC/C=C\CC1C(CC(=O)OCC(COCCCCCCCCC2CC2CCCCCCCC)OCCCCCCCCC2CC2CCCCCCCC)CCC1OC(=O)CCN(C)C (centres unmarked) [PNI 544]	5.68	–
CCCCCCCCC1CC1CCCCCCCCOCC(COC(=O)CC1CCC(OC(=O)CCCN(C)C)C1CC1CC1CC)OCCCCCCCCC1CC1CCCCCCCC (centres unmarked) [PNI 545]	5.91	–
CCCCCCCCC1CC1CCCCCCCCOCC(COC(=O)CC1CCC(OC(=O)CCN(C)C)C1CC1CC1CC)OCCCCCCCCC1CC1CCCCCCCC (centres unmarked) [PNI 546]	4.84	–
CC/C=C\CC1C(CC(=O)OC(CCCCCCCCC2CC2CCCCCCCC)CCCCCCCCC2CC2CCCCCCCC)CCC1OC(=O)CCN(C)C (centres unmarked) [PNI 549]	5.27	–
CC/C=C\CC1C(CC(=O)OCCC(CCCCCCCC)OC(=O)C(CCCCCC)CCCCCCCC)CCC1OC(=O)CCN(C)C (centres unmarked) [PNI 554]	5.52	–
CC/C=C\CC1C(CC(=O)OCC(COCCCCCCCC/C=C\C/C=C\CCCCC)OCCCCCCCC/C=C\C/C=C\CCCCC)CCC1OC(=O)CC1CCN(C)C1 (centres unmarked) [PNI 557]	6.7	–
CC/C=C\CC1C(CC(=O)OCC(COCCCCCCCC/C=C\C/C=C\CCCCC)OCCCCCCCC/C=C\C/C=C\CCCCC)CCC1OC(=O)CCCN1CCCC1 (centres unmarked) [PNI 558]	6.28	–
CC/C=C\CC1C(CC(=O)OCC(COCCCCCCCC/C=C\C/C=C\CCCCC)OCCCCCCCC/C=C\C/C=C\CCCCC)CCC1OC(=O)CC1CCCCN1C (centres unmarked) [PNI 559]	5.16	–
CC/C=C\CC1C(CC(=O)OC(CCCCCCCCC2CC2CCCCCCCC)CCCCCCCCC2CC2CCCCCCCC)CCC1OC(=O)C1(C)CCN(C)CC1 (centres unmarked) [PNI 560]	5.7	–
CC/C=C\CC1C(CC(=O)OCCC(CCCCCCCC)OC(=O)C(CCCCCC)CCCCCCCC)CCC1OC(=O)C1(C)CCN(C)CC1 (centres unmarked) [PNI 565]	5.99	CD19 CAR expression [4]: greater than MC3 LNP
